Laboratory results published in patent publication US20240067660A1, “MACROCYCLIC SPIROCYCLE DERIVATIVES AS MCL-1 INHIBITORS” (Janssen Pharmaceutica NV, priority 2019, published 2024).
Where two headings read alike, the source gives them in different places.

Key:
[1] = test system: MOLP-8 human multiple myeloma cell line; assay: Caspase-Glo 3/7 assay in MOLP-8 cells; assay type: cell-based; conditions: Caspase-Glo 3/7, 2 hours incubation, averaged over all runs on all batches, read-out: MOLP8 AC50
Text: MCL-1 is a regulator of apoptosis and is highly over-expressed in tumor cells that escape cell death. The assay evaluates the cellular potency of small-molecule compounds targeting regulators of the apoptosis pathway, primarily MCL-1, Bfl-1, Bcl-2, and other proteins of the Bcl-2 family. Protein-protein inhibitors disrupting the interaction of anti-apoptotic regulators with BH3-domain proteins initiate apoptosis.
The Caspase-Glo® 3/7 Assay is a luminescent assay that measures caspase-3 and -7 activities in purified enzyme preparations or cultures of adherent or suspension cells. The assay provides a proluminescent caspase-3/7 substrate, which contains the tetrapeptide sequence DEVD. This substrate is cleaved to release aminoluciferin, a substrate of luciferase used in the production of light. Addition of the single Caspase-Glo® 3/7 Reagent in an “add-mix-measure” format results in cell lysis, followed by caspase cleavage of the substrate and generation of a “glow-type” luminescent signal.
This assay uses the MOLP-8 human multiple myeloma cell line, which is sensitive to MCL-1 inhibition.
Cell cultures were maintained between 0.2 and 2.0×10^6 cells/mL. The cells were harvested by collection in 50 mL conical tubes. The cells were then pelleted at 500 g for 5 mins before removing supernatant and resuspension in fresh pre-warmed culture medium. The cells were counted and diluted as needed.
The assay reagent was prepared by transferring the buffer solution to the substrate vial and mixing. The solution may be stored for up to 1 week at 4° C. with negligible loss of signal.
Compounds were delivered in assay-ready plates (Proxiplate) and stored at −20° C. Assays always include 1 reference compound plate containing reference compounds. The plates were spotted with 40 nL of compounds (0.5% DMSO final in cells; serial dilution; 30 μM highest conc. 1/3 dilution, 10 doses, duplicates). The compounds were used at room temperature and 4 μL of pre-warmed media was added to all wells except column 2 and 23. The negative control was prepared by adding 1% DMSO in media. The positive control was prepared by adding the appropriate positive control compound in final concentration of 60 μM in media. The plate was prepared by adding 4 μL negative control to column 23, 4 μL positive control to column 2 and 4 μL cell suspension to all wells in the plate. The plate with cells was then incubated at 37° C. for 2 hours. The assay signal reagent is the Caspase-Glo solution described above, and 8 μL was added to all wells. The plates were then sealed and measured after 30 minutes.
The activity of a test compound was calculated as percent change in apoptosis induction as follows: […]

[2] = molecular target: Myeloid Cell Leukemia 1(Mcl-1) (Homo sapiens (Human), UniProt Q07820); assay: Terbium labeled Mcl-1 HTRF binding assay with Cy5-labeled BIM BH3 peptide; conditions: obtained after recalibration of the equipment; averaged values over several runs
Method: Terbium labeled Myeloid Cell Leukemia 1(Mcl-1) homogeneous time-resolved fluorescence (HTRF) binding assay utilizing the BIM BH3 peptide (H2N-(C/Cy5Mal) WIAQELRRIGDEFN-OH) as the binding partner for Mcl-1.
This assay evaluated inhibition of the BH3 domain: Mcl-1 interaction by measuring the displacement of Cy5-labeled BIM BH3 peptide (H2N—(C/Cy5Mal) WIAQELRRIGDEFN-OH) in the HTRF assay format.
The following assay and stock buffers were prepared for use in the assay: (a) Stock buffer: 10 mM Tris-HCl, pH=7.5+150 mM NaCl, filtered, sterilized, and stored at 4° C.; and (b) 1× assay buffer, where the following ingredients were added fresh to stock buffer: 2 mM dithiothreitol (DTT), 0.0025% Tween-20, 0.1 mg/mL bovine serum albumin (BSA). The 1×Tb-Mcl-1+Cy5 Bim peptide solution was prepared by diluting the protein stock solution using the 1× assay buffer (b) to 25 pM Tb-Mcl-1 and 8 nM Cy5 Bim peptide.
Using the Acoustic ECHO, 100 nL of 100× test compound(s) were dispensed into individual wells of a white 384-well Perkin Elmer Proxiplate, for a final compound concentration of lx and final DMSO concentration of 1%. Inhibitor control and neutral control (NC, 100 nL of 100% DMSO) were stamped into columns 23 and 24 of assay plate. Into each well of the plate was then dispensed 10 μL of the 1×Tb-Mcl-1+Cy5 Bim peptide solution. The plate was centrifuged with a cover plate at 1000 rpm for 1 minute, then incubated for 60 minutes at room temperature with plates covered.
The TR-FRET signal was read on an BMG PHERAStar FSX MicroPlate Reader at room temperature using the HTRF optic module (HTRF: excitation: 337 nm, light source: laser, emission A: 665 nm, emission B: 620 nm, integration start: 60 μs, integration time: […]).
The BMG PHERAStar FSX MicroPlate Reader was used to measure fluorescence intensity at two emission wavelengths—665 nm and 620 nm—and report relative fluorescence units (RFU) for both emissions, as well as a ratio of the emissions (665 nm/620 nm)*10,000. The RFU values were normalized to percent inhibition as follows:
% inhibition=((NC−IC)−(compound−IC))/(NC−IC))*100
where IC (inhibitor control, low signal)=mean signal of 1×Tb-MCl-1+Cy5 Bim peptide+inhibitor control or 100% inhibition of Mcl-1; NC (neutral control, high signal)=mean signal 1×Tb-MCl-1+Cy5 Bim peptide with DMSO only or 0% inhibition An 11-point dose response curve was generated to determine IC50 values (using GenData) based on the following equation:
Y=Bottom+(Top−Bottom)/(1+10^((IogIC50−X)*HillSlope))
where Y=% inhibition in the presence of X inhibitor concentration; Top=100% inhibition derived from the IC (mean signal of Mcl-1+inhibitor control); Bottom=0% inhibition derived from the NC (mean signal of Mcl-1+DMSO); Hillslope=Hill coefficient; and IC50=concentration of compound with 50% inhibition in relation to top/neutral control (NC).
In this assay [L]=8 nM and Kd=10 nM

Chain of Myeloid Cell Leukemia 1(Mcl-1) (Q07820 whole entry): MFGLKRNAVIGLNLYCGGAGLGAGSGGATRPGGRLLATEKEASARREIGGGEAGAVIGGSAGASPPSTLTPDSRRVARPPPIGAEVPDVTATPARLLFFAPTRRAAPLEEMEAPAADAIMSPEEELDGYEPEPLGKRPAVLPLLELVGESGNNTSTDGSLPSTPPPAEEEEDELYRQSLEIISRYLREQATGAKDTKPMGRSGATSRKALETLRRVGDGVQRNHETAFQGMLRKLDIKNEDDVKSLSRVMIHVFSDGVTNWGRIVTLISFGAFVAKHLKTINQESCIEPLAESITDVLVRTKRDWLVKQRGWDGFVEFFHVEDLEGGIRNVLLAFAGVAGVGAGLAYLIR

## C[C@@H]1[C@@H](C)C/C=C(\F)[C@H](COCCCN2CCOCC2)N2CCC[C@H]2CN2C[C@@]3(CCCc4cc(Cl)ccc43)COc3ccc(cc32)C(=O)NS1(=O)=O [Compound 34]
[1]; Homo sapiens, MOLP-8, 2 h
  AC50: 458 nM
[2]
  Ki: 0.21 nM

## C[C@@H]1[C@@H](C)C/C=C(\F)[C@H](CN2CCN3CCOC[C@@H]3C2)N2CC[C@H]2CN2C[C@@]3(CCCc4cc(Cl)ccc43)COc3ccc(cc32)C(=O)NS1(=O)=O [Compound 28]
[1]; Homo sapiens, MOLP-8, 2 h
  AC50: 120 nM
[2]
  Ki: 0.09 nM

## COCCOCC1(CO)/C(F)=C/C[C@H](C)[C@@H](C)S(=O)(=O)NC(=O)c2ccc3c(c2)N(C[C@@H]2CCN21)C[C@@]1(CCCc2cc(Cl)ccc21)CO3 (single isomer, unassigned) [Compound 42]
[1]
  AC50: 730 nM
[2]
  Ki: 0.9 nM

## C[C@@H]1[C@@H](C)C/C=C(\F)C(CO)(CO)N2CCC[C@H]2CN2C[C@@]3(CCCc4cc(Cl)ccc43)COc3ccc(cc32)C(=O)NS1(=O)=O [Compound 35]
[1]; Homo sapiens, MOLP-8, 2 h
  AC50: 547 nM
[2]
  Ki: 0.14 nM

## C[C@@H]1[C@@H](C)C/C=C(\F)C(CO)(CO)N2CC[C@H]2CN2C[C@@]3(CCCc4cc(Cl)ccc43)COc3ccc(cc32)C(=O)NS1(=O)=O [Compound 36]
[1]; Homo sapiens, MOLP-8, 2 h
  AC50: 2390 nM
[2]
  Ki: 0.23 nM

## COCC1(CO)/C(F)=C/C[C@H](C)[C@@H](C)S(=O)(=O)NC(=O)c2ccc3c(c2)N(C[C@@H]2CCN21)C[C@@]1(CCCc2cc(Cl)ccc21)CO3 (single isomer, unassigned) [Compound 39]
[1]
  AC50: 630 nM
[2]
  Ki: 1.84 nM

## COCC1(CO)/C(F)=C/C[C@H](C)[C@@H](C)S(=O)(=O)NC(=O)c2ccc3c(c2)N(C[C@@H]2CCN21)C[C@@]1(CCCc2cc(Cl)ccc21)CO3 (single isomer, unassigned) [Compound 38]
[1]
  AC50: 152 nM
[2]
  Ki: 0.15 nM

## COCC1(COC)/C(F)=C/C[C@H](C)[C@@H](C)S(=O)(=O)NC(=O)c2ccc3c(c2)N(C[C@@H]2CCN21)C[C@@]1(CCCc2cc(Cl)ccc21)CO3 [Compound 37]
[1]; Homo sapiens, MOLP-8, 2 h
  AC50: 253 nM
[2]
  Ki: 0.45 nM
